Reference: patent publication US8729047B2, “Compositions for inhibiting redox-sensitive GTPases” (Board of Regents, The University of Texas System, priority 2010, dated 2014)
Like-named read-outs stand apart in the source and are kept apart here. One block for each compound: values may come before it.

Columns and labels:
[1] = biological target: RhoC (Homo sapiens, UniProt P08134); experiment: Guanine nucleotide exchange of [3H]GDP-loaded GTPase with 6-TGDP (FIG. 13A); assay type: binding; design: made in house; host or cells: E. coli
Sequence of RhoC (P08134 whole entry): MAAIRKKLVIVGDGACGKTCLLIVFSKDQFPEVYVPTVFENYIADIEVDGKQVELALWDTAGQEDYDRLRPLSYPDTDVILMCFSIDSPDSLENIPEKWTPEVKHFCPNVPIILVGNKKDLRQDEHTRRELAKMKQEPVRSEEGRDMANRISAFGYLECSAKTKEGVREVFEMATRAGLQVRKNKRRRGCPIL
Experimental: FIG. 13. Guanine nucleotide exchange of small GTPases with 6-TGDP. (A) To monitor 6-TGDP-mediated GTPase GDP dissociation, [^3H]GDP-loaded GTPase (1 μM) was incubated with 6-TGDP (0-2000 μM) for 1 h. (B) To monitor GTPase 6-TGDP dissociation by GDP (0-2000 μM) in the presence and absence of dithiothreitol (DTT), 6-TGDP-loaded GTPase (˜1 μM) was treated with .NO2 (˜3 μM) under anaerobic conditions and was incubated with various concentrations of [^3H]GDP (0-2000 μM) in the presence and absence of DTT (10 mM) for 1 h. For all assays, aliquots were withdrawn and spotted onto nitrocellulose filters. The filters were then washed three times with an assay buffer, and radioactivity was determined using a Beckman-Coulter scintillation counter. The resultant radioactivity (dpm) values associated with GTPase-bound [^3H]GDP were converted into the fraction of mol nucleotide per mol total GTPase. The data presented represent mean and standard error values from triplicate measurements. The apparent dissociation constants (appKD values) of GTPase 6-TGDP association ([^3H]GDP dissociation, A); and 6-TGDP dissociation ([3H]GDP association, B) were obtained by fitting the data to a simple dissociation and association, respectively. (A) The ^appKD values of Ras, RhoC, RhoA and Rac1 for 6-TGDP, are, respectively, 2300, 230, 224, and 245 μM [6-TGDP]. (B) The appKD values of RhoC with and without DTT are, respectively, 560, and 1000 μM [[^3H]GDP], whereas the ^appKD values of Ras with and without DTT are 530, and 520 μM [[^3H]GDP], respectively. The standard errors of each ^appKD value are less than 10% of their given values, and regression values associated with the fit were r^2>0.9560.
A kinetic assay method using radiolabeled GDP ([^3H]GDP) was established. The apparent dissociation constants (^appKD 6-TGDP) of Rho GTPases (including RhoA, Cdc42, and Rac1/2/3) and Ras with 6-TGDP were determined (FIG. 13). The results of this preliminary kinetic study provided strong support for the mechanism proposed for the role of 6-TGNP in RhoC inactivation (FIG. 7).
The true dissociation constant (^trueKD 6-TGDP) of Ras, RhoC, RhoA and Rac1 for 6-TGDP was then calculated to be ˜20.7 pM, 212 μM, 208 μM, and 158 μM [6-TGDP] by using a compensation equation, ^trueKD 6-TGDP=^appKD 6-TGDP/(1+[GDP]/^trueKD GDP) (95), in conjunction with the values given [(^appKD 6-TGDP of Ras, RhoC, RhoA, and Rac1=2300, 230, 224, and 245 μM (FIG. 13) and ^trueKD GDP=9 pM, 12 μM, 13 μM and 1.8 μM, respectively. The ^trueKD GDP of Ras, RhoA and Rac1 was determined previously (Lenzen et al. Biochemistry 37, 7420-7430 (1998); Heo et al. Biochemistry 44, 6573-6585 (2005)) and the ^trueKD GDP of RhoC was further determined. Example: ^trueKD 6-TGDP for Ras=2300 μM/(1+1 μM GDP/[…])=[…] [6-TGDP]].

[2] = biological target: T1, RhoA (Rattus norvegicus, UniProt P61589); experiment: RhoA expression (Western) and RhoA G-LISA activity in A7r5 cells; assay type: cell-based
T1 construct: endogenous in cells; host or cells: A7r5 cells (rat aortic vascular smooth muscle)
T1 sequence (P61589 whole entry): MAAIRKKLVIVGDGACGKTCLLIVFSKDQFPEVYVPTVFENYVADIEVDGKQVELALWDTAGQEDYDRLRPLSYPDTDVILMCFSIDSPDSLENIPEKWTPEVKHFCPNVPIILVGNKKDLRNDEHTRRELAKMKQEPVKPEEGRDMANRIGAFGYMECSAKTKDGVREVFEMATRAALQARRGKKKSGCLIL
Experimental: FIG. 20. Determination of RhoA activity and MLC phosphorylation. […] Cell lysates in a buffer containing 1% NP-40, 10 mM EDTA, and 20 mM TrisHCl (pH 7.4) were centrifuged (50,000×g, 20 min) to remove solid matter. (A) The soluble cell extract was then used to perform Western blot analyses for RhoA and the MLC. This cell extract also was used for the co-IP-based ESI-MS analysis (FIG. 6). (B) A RhoA activity assay was colorimetrically determined using cell extract; the assay was performed with the RhoA G-LISA Activation Assay Kit (Cat. No. BK124) (Denver, Colo.). To examine the level of phosphorylation of the MLC, cells were cultured with ˜5 μCi of ^32P in 1 mL of phosphate-free DMEM. The collected cell extract was nutated with resin coupled with a macrophage myosin II antibody at 4° C. for 5 h. Resin was collected by centrifugation, and proteins bound to the resin were washed and eluted with a buffer (80° C.) containing […], 5 mM DTT, and 10 mM TrisHCl (pH 6.8). The immunoprecipitates were then analyzed by SDS-PAGE and autoradiographed. The values of RhoA activity and the MLC phosphorylation determined from untreated cells were set at 100%. […] The data represented in the figure represent the mean values of triplicate measurements, and the vertical error bar indicates standard errors.

[3] = biological target: Rac1 (Homo sapiens, UniProt P63000); experiment: Rac1 expression (Western) and Rac1 G-LISA activity in activated T cells; assay type: cell-based
Experimental: FIG. 26. Determination of Rac1 activity and ERM phosphorylation. […] (A) The soluble cell extract was then used to perform Western blot analyses for Rac1 and the ERM. This cell extract also was used for the co-IP-based ESI-MS analysis (FIG. 8). (B) A Rac1 activity assay was colorimetrically determined using cell extract; the assay was performed with the Rac1 G-LISA Activation Assay Kit (Cat. No. BK125) (Denver, Colo.). To examine the level of phosphorylation of the ERM, cells were cultured in complete RPMI 1640 medium with ˜50 μCi of ^32P/mL before initiating stimulation of T cells. The collected cell extract was nutated with resin coupled with a human ERM (231C2a) antibody (Santa Cruz Biotechnology, CA) at 4° C. for 5 h. […] The immunoprecipitates were then analyzed by SDS-PAGE and autoradiographed. […] The data represented in the figure represent the mean values of triplicate measurements, and the vertical error bar indicates standard errors.

SMILES: Nc1nc2c(ncn2[C@@H]2O[C@H](COP(=O)(O)OP(=O)(O)O)[C@@H](O)[C@H]2O)c(=O)[nH]1 [GDP]
Kd ([1]; further determined (Example 2), read-out: trueKD GDP): 12 µM

Kd ([1]; [3H]GDP-loaded GTPase 1 μM, 6-TGDP 0-2000 μM, 1 h, FIG. 13A, read-out: appKD for 6-TGDP): 230 µM | Kd ([1]; calculated by compensation equation from appKD 6-TGDP and trueKD GDP, read-out: trueKD 6-TGDP): 212 µM
SMILES: Nc1nc2c(ncn2[C@@H]2O[C@H](COP(=O)(O)OP(=O)(O)O)[C@@H](O)[C@H]2O)c(=S)[nH]1 [6-TGDP, 6-thioguanosine diphosphate]

cellular expression levels of RhoA and of the MLC ([2]; presence or absence of 6-TG, FIG. 20A): not changed | cellular expression level of Rac1 and ERM ([3]; presence or absence of 6-TG, FIG. 26A): not changed
SMILES: Nc1nc2nc[nH]c2c(=S)[nH]1 [6-TG, 6-thioguanine]
RhoA inactivation ([2]; 6-TG 1 μM, within 3 days, FIG. 20B): significant portion of RhoA was inactivated | fraction of inactive RhoA ([2]; 6-TG plus DETA/NO 10 μM, FIG. 20B): synergistically increases the fraction of inactive RhoA | Rac1 inactivation ([3]; 6-TG 1 μM, within 3 days, FIG. 26B): significant portion of Rac1 was inactivated | fraction of inactive Rac1 ([3]; 6-TG plus DETA/NO 10 μM): synergistically increases the fraction of inactive Rac1

screen of 6-TP isomers on RhoA activity ([2]; not shown): most effectively inhibits RhoA activity | screen of 6-TP isomers on Rac1 activity ([3]; not shown): most effectively inhibits Rac1 activity
SMILES: Nc1nc2[nH]c(S)nc2c(=O)[nH]1 [8-TG, 2-amino-8-mercapto-1H-purin-6(9H)-one]
